Converted amounts (≈) assume the structure as drawn. The source made the active and inactive calls. The calls are words filed in the database; no cut-off is given here.
How the values were obtained:
Bacillus cereus [1] = test: Induction of cell damage in Bacillus cereus ATCC 11778 assessed as increase in fluorescence intensity at MIC after 12 hrs using propidium iodide staining by flow cytometry analysis; assay type: functional
Salmonella paratyphi [2] = test: Antibacterial activity against Salmonella paratyphi A MTCC 735 after 18 hrs by microdilution method; assay type: functional, Salmonella enterica subsp. enterica serovar Paratyphi A; conditions: Salmonella enterica, MTCC 735, 18 h
Staphylococcus aureus [3] = test: Induction of cell leakage in Staphylococcus aureus ATCC 6538 assessed as release of cellular materials at MIC after 8 to 16 hrs by UV/VIS spectrophotometer analysis; assay type: functional, organism-based
Staphylococcus aureus [4] = test: Antibacterial activity against Staphylococcus aureus ATCC 6538 after 18 hrs by microdilution method; assay type: functional; conditions: ATCC 6538, 18 h
Staphylococcus aureus [5] = test: Induction of cell lysis in Staphylococcus aureus ATCC 6538 assessed as membrane disintegration and damage of cell wall at MIC by field emission scanning electron microscopy analysis; assay type: functional, organism-based
Escherichia coli [6] = test: Antibacterial activity against Escherichia coli ATCC 25922 after 18 hrs by microdilution method; assay type: functional; conditions: ATCC 25922, 18 h
Bacillus cereus [7] = test: Antibacterial activity against Bacillus cereus ATCC 11778 after 18 hrs by microdilution method; assay type: functional; conditions: ATCC 11778, 18 h
Listeria monocytogenes [8] = test: Antibacterial activity against Listeria monocytogenes ATCC 19115 after 18 hrs by microdilution method; assay type: functional; conditions: ATCC 19115, 18 h
Yersinia enterocolitica [9] = test: Antibacterial activity against Yersinia enterocolitica MTCC 859 after 24 hrs; assay type: functional; conditions: MTCC 859, 24 h
Bacillus cereus [10] = test: Antibacterial activity against Bacillus cereus ATCC 11778 after 24 hrs; assay type: functional; conditions: ATCC 11778, 24 h
Salmonella paratyphi [11] = test: Antibacterial activity against Salmonella paratyphi A MTCC 735 after 24 hrs; assay type: functional, Salmonella enterica subsp. enterica serovar Paratyphi A; conditions: Salmonella enterica, MTCC 735, 24 h
Yersinia enterocolitica [12] = test: Antibacterial activity against Yersinia enterocolitica MTCC 859 after 18 hrs by microdilution method; assay type: functional; conditions: MTCC 859, 18 h
Yersinia enterocolitica [13] = test: Induction of cell leakage in Yersinia enterocolitica MTCC 859 assessed as release of cellular materials at MIC after 8 to 16 hrs by UV/VIS spectrophotometer analysis; assay type: functional, organism-based
Escherichia coli [14] = test: Induction of cell damage in enterotoxic Escherichia coli MTCC 723 assessed as increase in fluorescence intensity at MIC after 12 hrs using propidium iodide staining by flow cytometry analysis; assay type: functional
Escherichia coli [15] = test: Antibacterial activity against Escherichia coli ATCC 25922 after 24 hrs; assay type: functional; conditions: ATCC 25922, 24 h
Staphylococcus aureus [16] = test: Antibacterial activity against Staphylococcus aureus ATCC 6538 after 24 hrs; assay type: functional; conditions: ATCC 6538, 24 h
Listeria monocytogenes [17] = test: Induction of cell damage in Listeria monocytogenes ATCC 19115 assessed as increase in fluorescence intensity at MIC after 12 hrs using propidium iodide staining by flow cytometry analysis; assay type: functional
Staphylococcus aureus [18] = test: Induction of cell damage in Staphylococcus aureus ATCC 6538 assessed as increase in fluorescence intensity at MIC after 12 hrs using propidium iodide staining by flow cytometry analysis; assay type: functional
Yersinia enterocolitica [19] = test: Induction of cell damage in Yersinia enterocolitica MTCC 859 assessed as increase in fluorescence intensity at MIC after 12 hrs using propidium iodide staining by flow cytometry analysis; assay type: functional
Escherichia coli [20] = test: Antibacterial activity against enterotoxic Escherichia coli MTCC 723 after 24 hrs; assay type: functional; conditions: MTCC 723, 24 h
Yersinia enterocolitica [21] = test: Induction of cell lysis in Yersinia enterocolitica MTCC 859 assessed as cell membrane damage at MIC by field emission scanning electron microscopy analysis; assay type: functional, organism-based
Listeria monocytogenes [22] = test: Antibacterial activity against Listeria monocytogenes ATCC 19115 after 24 hrs; assay type: functional; conditions: ATCC 19115, 24 h
Salmonella paratyphi [23] = test: Induction of cell damage in Salmonella paratyphi A MTCC 735 assessed as increase in fluorescence intensity at MIC after 12 hrs using propidium iodide staining by flow cytometry analysis; assay type: functional, Salmonella enterica subsp. enterica serovar Paratyphi A
Escherichia coli [24] = test: Antibacterial activity against enterotoxic Escherichia coli MTCC 723 after 18 hrs by microdilution method; assay type: functional; conditions: MTCC 723, 18 h
Escherichia coli [25] = test: Induction of cell damage in Escherichia coli ATCC 25922 assessed as increase in fluorescence intensity at MIC after 12 hrs using propidium iodide staining by flow cytometry analysis; assay type: functional

SMILES	RFU (Bacillus cereus [1])	MIC (Salmonella paratyphi [2]) [µg/mL]	Activity (Staphylococcus aureus [3])	MIC (Staphylococcus aureus [4]) [µg/mL]	Activity (Staphylococcus aureus [5])	MIC (Escherichia coli [6]) [µg/mL]	MIC (Bacillus cereus [7]) [µg/mL]	MIC (Listeria monocytogenes [8]) [µg/mL]	MBC (Yersinia enterocolitica [9]) [µg/mL]	MBC (Bacillus cereus [10]) [µg/mL]	MBC (Salmonella paratyphi [11]) [µg/mL]	MIC (Yersinia enterocolitica [12]) [µg/mL]	Activity (Yersinia enterocolitica [13])	RFU (Escherichia coli [14])	MBC (Escherichia coli [15]) [µg/mL]	MBC (Staphylococcus aureus [16]) [µg/mL]	RFU (Listeria monocytogenes [17])	RFU (Staphylococcus aureus [18])	RFU (Yersinia enterocolitica [19])	MBC (Escherichia coli [20]) [µg/mL]	further results
CC1(C)CCC[C@@]2(C)[C@H]1CC[C@@]1(CO1)[C@@H]2C/C=C(/C=O)CC=O [AFRAMODIAL]	118	6.75 (≈ 21.2 µM)	Active	3.38 (≈ 10.6 µM)	Active	12.5 (≈ 39.3 µM)	6.75 (≈ 21.2 µM)	12.5 (≈ 39.3 µM)	3.38 (≈ 10.6 µM)	6.75 (≈ 21.2 µM)	12.5 (≈ 39.3 µM)	3.38 (≈ 10.6 µM)	Active	153	12.5 (≈ 39.3 µM)	6.75 (≈ 21.2 µM)	89.9	119	117	6.75 (≈ 21.2 µM)	Activity (Yersinia enterocolitica [21]): Active; MBC (Listeria monocytogenes [22]): 12.5 µg/mL (≈ 39.3 µM); RFU (Salmonella paratyphi [23]): 87.6; MIC (Escherichia coli [24]): 6.75 µg/mL (≈ 21.2 µM); RFU (Escherichia coli [25]): 187
C=C1CC[C@H]2C(C)(C)CCC[C@]2(C)[C@H]1C/C=C(/C=O)CC=O	117	12.5 (≈ 41.3 µM)	Active	12.5 (≈ 41.3 µM)	Active	25 (≈ 82.7 µM)	12.5 (≈ 41.3 µM)	25 (≈ 82.7 µM)	25 (≈ 82.7 µM)	12.5 (≈ 41.3 µM)	12.5 (≈ 41.3 µM)	12.5 (≈ 41.3 µM)	Active	139	50 (≈ 165 µM)	25 (≈ 82.7 µM)	70.9	114	80.7	25 (≈ 82.7 µM)	Activity (Yersinia enterocolitica [21]): Active; MBC (Listeria monocytogenes [22]): 25 µg/mL (≈ 82.7 µM); RFU (Salmonella paratyphi [23]): 78.5; MIC (Escherichia coli [24]): 25 µg/mL (≈ 82.7 µM); RFU (Escherichia coli [25]): 146
